Reference: article PMC11164105, “Exploring of N-phthalimide-linked 1,2,3-triazole analogues with promising -anti-SARS-CoV-2 activity: synthesis, biological screening, and molecular modelling studies” (Journal of Enzyme Inhibition and Medicinal Chemistry, 2024)
Like-named read-outs stand apart in the source and are kept apart here.

What was measured:
[1] = test system: SARS-CoV-2 isolate EGY/WAT-2 VACCERA; assay: microbe, parasite or virus in culture; type: cell-based; conditions: for inhibition at 10 µM: Severe acute respiratory syndrome coronavirus 2, Vero C1008, 10 uM; for (API) Antiviral potency index: ratio of the inhibition % of the tested compound to that of Remdesivir at 10 μM, 1 = identical effect
[2] = target: T1, SARS-CoV-2 Mpro (Severe acute respiratory syndrome coronavirus 2, UniProt P0DTD1); assay: SARS-CoV-2 Mpro inhibition assay (BPS Bioscience, FRET peptide); type: biochemical
T1 construct: purchased BPS Bioscience

[3] = test system: SARS-CoV-2; parameters: method as in PMID 36986562; conditions: 10 µM, Vero 6 cells; cited from earlier work
[4] = test system: main protease Mpro; parameters: method as in PMID 36986562; conditions: read-out: IC50 of main protease Mpro inhibition; cited from earlier work
[5] = test system: COVID-19; parameters: method as in PMID 34914868; conditions: adult patients with mild-to-moderate COVID-19, not hospitalized, phase-3; cited from earlier work
[6] = test system: SARS-CoV-2; parameters: method as in PMID 34750163; conditions: ritonavir and Nirmatrelvir used in conjunction; cited from earlier work
[7] = test system: Vero E6 cells; assay: Cytotoxicity evaluation using MTT viability assay; conditions: Vero E6 cytotoxicity IC50 compared with the antiviral activity maximum concentration (10 mM printed in footnote, 10 uM in text)
[8] = Severe acute respiratory syndrome coronavirus 2, Vero C1008, 1 uM, infected Vero E6 cells, read-out: % of inhibition of SARS CoV-2
[9] = in vitro enzyme assay, read-out: IC50 against SARS-CoV-2 Mpro

| Compound | (API) Antiviral potency index [1] | melting point | other results |
| --- | --- | --- | --- |
| O=C(Cn1cc(COc2ccc(/C=N/N3C(=O)c4ccccc4C3=O)cc2)nn1)Nc1ccc(C(=O)O)cc1 [Compound 6a, (E)-4–(2-(4-((4-(((1,3-dioxoisoindolin-2-yl)imino)methyl)phenoxy)methyl)-1H-1,2,3-triazol-1-yl)acetamido)benzoic acid] | 0.98 | 264 to 265 °C | % of inhibition of SARS CoV-2 ([1]; 10 uM, infected Vero E6 cells): 94.96%; inhibition at 0.01 µM ([1]; Severe acute respiratory syndrome coronavirus 2, Vero C1008, 0.01 uM): ~40%; inhibition at 1 µM [1, 8]: 87.8%; inhibition at 10 µM ([1]; infected Vero E6 cells): 94%; EC50 ([1]; Severe acute respiratory syndrome coronavirus 2, Vero C1008, dose-response at five concentrations starting from 10 uM, read-out: EC50 of virus inhibition): 0.038 µM; IC50 [2, 9]: 113 ± 5.75 µM |
| O=C(Cn1cc(COc2ccc(/C=N/N3C(=O)c4ccccc4C3=O)cc2)nn1)Nc1ccccc1I [Compound 6b, (E)-2–(4-((4-(((1,3-dioxoisoindolin-2-yl)imino)methyl)phenoxy)methyl)-1H-1,2,3-triazol-1-yl)-N-(2-iodophenyl) acetamide] | 0.97 | 213 to 214 °C |  |
| O=C(Cn1cc(COc2ccc(/C=N/N3C(=O)c4ccccc4C3=O)cc2)nn1)Nc1ccc(I)cc1F [Compound 6c, (E)-2–(4-((4-(((1,3-dioxoisoindolin-2-yl)imino)methyl)phenoxy)methyl)-1H-1,2,3-triazol-1-yl)-N-(2-fluoro-4-iodophenyl)acetamide] | 0.96 | 228 to 229 °C |  |
| O=C(Cn1cc(COc2ccc(/C=N/N3C(=O)c4ccccc4C3=O)cc2)nn1)Nc1ccc([N+](=O)[O-])cc1 [Compound 6d, (E)-2–(4-((4-(((1,3-dioxoisoindolin-2-yl)imino)methyl)phenoxy)methyl)-1H-1,2,3-triazol-1-yl)-N-(4-nitrophenyl)acetamide] | 0.98 | 242 to 243 °C |  |
| O=C(Cn1cc(COc2ccc(/C=N/N3C(=O)c4ccccc4C3=O)cc2)nn1)Nc1ccc(F)cc1 [Compound 6e, (E)-2–(4-((4-(((1,3-dioxoisoindolin-2-yl)imino)methyl)phenoxy)methyl)-1H-1,2,3-triazol-1-yl)-N-(4-fluorophenyl) acetamide] | 0.96 | 219 to 220 °C |  |
| Cc1ccc(CNC(=O)Cn2cc(COc3ccc(/C=N/N4C(=O)c5ccccc5C4=O)cc3)nn2)cc1 [Compound 6f, (E)-2–(4-((4-(((1,3-dioxoisoindolin-2-yl)imino)methyl)phenoxy)methyl)-1H-1,2,3-triazol-1-yl)-N-(4-methylbenzyl) acetamide] | 0.92 | 201 to 202 °C |  |
| O=C(Cn1cc(COc2ccc(/C=N/N3C(=O)c4ccccc4C3=O)cc2)nn1)NCc1ccc(F)cc1 [Compound 6g, (E)-2–(4-((4-(((1,3-dioxoisoindolin-2-yl)imino)methyl)phenoxy)methyl)-1H-1,2,3-triazol-1-yl)-N-(4-fluorobenzyl) acetamide] | 0.97 |  | inhibition at 10 µM ([1]; infected Vero E6 cells): 94%; IC50 [2, 9]: 90.1 ± 4.59 µM |
| O=C(Cn1cc(COc2ccc(/C=N/N3C(=O)c4ccccc4C3=O)cc2)nn1)NCc1ccc(Cl)cc1 [Compound 6h, (E)-N-(4-chlorobenzyl)-2–(4-((4-(((1,3-dioxoisoindolin-2-yl)imino)methyl)phenoxy)methyl)-1H-1,2,3-triazol-1-yl)acetamide] | 0.95 | 208 to 209 °C |  |
| O=C1c2ccccc2C(=O)N1/N=C/c1ccc(OCc2cn(-c3ccc(F)cc3)nn2)cc1 [Compound 8a, (E)-2-((4-((1–(4-fluorophenyl)-1H-1,2,3-triazol-4-yl)methoxy)benzylidene)amino) isoindoline-1,3-dione] | 0.96 | 238 to 239 °C |  |
| O=C(O)c1ccc(-n2cc(COc3ccc(/C=N/N4C(=O)c5ccccc5C4=O)cc3)nn2)cc1 [Compound 8b, (E)-4–(4-((4-(((1,3-dioxoisoindolin-2-yl)imino)methyl)phenoxy)methyl)-1H-1,2,3-triazol-1-yl)benzoic acid] | 0.91 | 287 to 288 °C |  |
| O=C1c2ccccc2C(=O)N1/N=C/c1ccc(OCc2cn(-c3ccccc3F)nn2)cc1 [Compound 8e, (E)-2-((4-((1–(2-fluorophenyl)-1H-1,2,3-triazol-4-yl)methoxy)benzylidene)amino)isoindoline-1,3-dione] | 0.98 | 248 to 249 °C | inhibition at 1 µM [1, 8]: 83.6% |
| CCOC(=O)c1ccc(-n2cc(COc3ccc(/C=N/N4C(=O)c5ccccc5C4=O)cc3)nn2)cc1 [Compound 8f, ethyl (E)-4–(4-((4-(((1,3-dioxoisoindolin-2-yl)imino)methyl)phenoxy)methyl)-1H-1,2,3-triazol-1-yl)benzoate] | 0.91 | 224 to 225 °C |  |
| O=C1c2ccccc2C(=O)N1/N=C/c1ccc(OCc2cn(-c3ccc(Cl)c(Cl)c3)nn2)cc1 [Compound 8g, (E)-2-((4-((1–(3,4-dichlorophenyl)-1H-1,2,3-triazol-4-yl)methoxy)benzylidene)amino)isoindoline-1,3-dione] | 0.96 |  |  |
| CC(=O)c1ccc(-n2cc(COc3ccc(/C=N/N4C(=O)c5ccccc5C4=O)cc3)nn2)cc1 [Compound 8h, (E)-2-((4-((1–(4-acetylphenyl)-1H-1,2,3-triazol-4-yl)methoxy)benzylidene)amino)isoindoline-1,3-dione] | 0.96 | 275 to 276 °C |  |
| CC(=O)OC[C@@H]1O[C@H](n2cc(COc3ccc(/C=N/N4C(=O)c5ccccc5C4=O)cc3)nn2)[C@@H](OC(C)=O)[C@H](OC(C)=O)[C@H]1OC(C)=O [Compound 10a, (2S,3S,4R,5S,6S)-2-(acetoxymethyl)-6–(4-((4-((E)-((1,3-dioxoisoindolin-2-yl)imino)methyl)phenoxy)methyl)-1H-1,2,3-triazol-1-yl)tetrahydro-2H-pyran-3,4,5-triyl triacetate] | 0.92 | 166 to 167 °C | IC50 [2, 9]: 1090 ± 55.5 µM |
| CC(=O)OC[C@@H]1O[C@H](n2cc(COc3ccc(/C=N/N4C(=O)c5ccccc5C4=O)cc3)nn2)[C@@H](OC(C)=O)[C@H](OC(C)=O)[C@@H]1OC(C)=O [Compound 10b, (2S,3R,4R,5S,6S)-2-(acetoxymethyl)-6–(4-((4-((E)-((1,3-dioxoisoindolin-2-yl)imino)methyl)phenoxy)methyl)-1H-1,2,3-triazol-1-yl)tetrahydro-2H-pyran-3,4,5-triyl triacetate] | 0.90 |  |  |
| CC1=NN(c2ccc(Cl)cc2)C(=O)/C1=C\c1ccc(OCc2cn(CC(=O)Nc3ccc(C(=O)O)cc3)nn2)cc1 [Compound 11] |  |  | inhibition of SARS-CoV-2 growth [3]: 63.39 ± 0.48%; IC50 [4]: 3.16 ± 1.2 µM |
| Cc1cccc(C)c1OCC(=O)N[C@@H](Cc1ccccc1)[C@@H](O)C[C@H](Cc1ccccc1)NC(=O)[C@H](C(C)C)N1CCCNC1=O [Lopinavir, reference compound] |  |  | IC50 [2]: 149 ± 7.48 µM |
| CC(C)C(=O)OC[C@H]1O[C@@H](n2ccc(NO)nc2=O)[C@H](O)[C@@H]1O [Moldupiravir] |  |  | reduction of the risk of death or hospitalisation [5]: 30% |
| CC(C)(C)[C@H](NC(=O)C(F)(F)F)C(=O)N1C[C@H]2[C@@H]([C@H]1C(=O)N[C@H](C#N)C[C@@H]1CCNC1=O)C2(C)C [Nirmatrelvir] |  |  | decrease in hospitalisation or mortality [6]: 89% |
| CCC(CC)COC(=O)[C@H](C)N[P@](=O)(OC[C@H]1O[C@@](C#N)(c2ccc3c(N)ncnn23)[C@H](O)[C@@H]1O)Oc1ccccc1 [Remdesivir, reference compound] |  |  | inhibition at 1 µM ([1]; Severe acute respiratory syndrome coronavirus 2, Vero C1008, read-out: % of inhibition of SARS CoV-2): 92.7%; EC50 ([1]; Severe acute respiratory syndrome coronavirus 2, Vero C1008, read-out: EC50 of virus inhibition): 0.029 µM; CT/A Cytotoxicity/activity parameter [7]: 4.31 |
| (E)-2-((4-((1–(3-fluoro-4-methylphenyl)-1H-1,2,3-triazol-4-yl)methoxy)benzylidene)amino) Isoindoline-1,3-dione [Compound 8d] | 0.92 |  |  |
| (E)-2-((4-((1–(4-nitrophenyl)-1H-1,2,3-triazol-4-yl)methoxy)benzylidene)amino)isoindoline-1,3-dione [Compound 8c] | 0.96 |  | CT/A Cytotoxicity/activity parameter [7]: 8.62 |
